Patent publication US10336763B1, “Crystal form B of ribociclib succinate” (Chunghwa Chemical Synthesis & Biotech Co. Ltd., priority 2018, dated 2019)

Test: crystalline stability in constant temperature and humidity chamber
Format: physicochemical
[1] = 25° C./75% RH, summary of 1 to 7 days
[2] = 80° C./75% RH, summary of 1 to 7 days
[3] = powder exposed to 25° C., 75%RH, 1 day
[4] = powder exposed to 25° C., 75%RH, 3 days
[5] = powder exposed to 25° C., 75%RH, 7 days
[6] = powder exposed to 80° C., 75%RH, 1 day
[7] = powder exposed to 80° C., 75%RH, 3 days
[8] = powder exposed to 80° C., 75%RH, 7 days

crystalline form (crystalline stability) [3]	crystalline form (crystalline stability) [4]	crystalline form (crystalline stability) [5]	crystalline form (crystalline stability) [6]	crystalline form (crystalline stability) [7]	crystalline form (crystalline stability) [8]	SMILES	crystalline form (crystalline stability) [1]	crystalline form (crystalline stability) [2]
Stayed as A	Stayed as A	Stayed as A	Transformed from A to B	Transformed from A to B	Transformed from A to B	CN(C)C(=O)c1cc2cnc(Nc3ccc(N4CCNCC4)cn3)nc2n1C1CCCC1.O=C(O)CCC(=O)O [Ribociclib succinate in crystalline form A] [butanedioicacid-7-cyclopentyl-N,N-dimethyl-2-[(5-piperazin-1-ylpyridin-2-yl)amino]pyrrolo[2,3-D]pyrimidine-6-carboxamide]	maintained its crystalline form	transformed from crystalline form A to crystalline form B
Stayed as B	Stayed as B	Stayed as B	Stayed as B	Stayed as B	Stayed as B	CN(C)C(=O)c1cc2cnc(Nc3ccc(N4CCNCC4)cn3)nc2n1C1CCCC1.O=C(O)CCC(=O)O [Ribociclib succinate in crystalline form B] [butanedioicacid-7-cyclopentyl-N,N-dimethyl-2-[(5-piperazin-1-ylpyridin-2-yl)amino]pyrrolo[2,3-D]pyrimidine-6-carboxamide]	maintained its crystalline form and did not transform to other crystalline forms	maintained its crystalline form and did not transform to other crystalline forms
